Substitutions are numbered along the chain they refer to. Where “and” joins values, the source holds several entries; their conditions need not be identical. Equal values may be shown once.
Key:
Format in all cases: cell-based
OX2R Y354A = biological target: T1, OX2R Y354A (Homo sapiens, UniProt O43614, Y354A); test: β-arrestin PathHunter assay, OX2R Y354A; conditions: for beta-arrestin recruitment fold change: Y354A, listed as OxB
T1 construct: expressed in transfected cells; host or cells: CHO-K1 cells stably expressing EA β-arrestin2 (DiscoveRX), transiently transfected with pCMV-ProLink OX2R
Description: (§1) β-Arrestin recruitment activity was measured by using the PathHunter system (DiscoveRX) according to the manufacturer’s instruction. Receptor constructs used were the full-length wild-type (or mutant) human OX2R sequences cloned into pCMV-ProLink (DiscoveRX). CHO-K1 cells stably expressing EA β-arrestin2 (DiscoveRX) were plated on 384 well white plates (Thermo Fisher) at 4000 cells/well in HamF12 (Wako Pure Chemical Industries) supplemented with 10% fetal bovine serum (Corning) and penicillin-streptomycin (Wako Pure Chemical Industries) and incubated overnight at 37 °C under 5% CO2. Cells were transfected with plasmids encoding wild type or each mutant ProLink-tagged human OX2R using FuGENE HD (Promega). […] Detection reagent was added and incubated for 1 h at room temperature. Luminescent signal was detected using an EnVision plate reader (PerkinElmer). β-arrestin assays on different constructs were performed in two or three independent experiments (each done in quadruplicate). Dose response curves (shown in Supplementary Fig. 8) were fitted to the three-parameter model ‘log(agonist) vs response’ in GraphPad Prism to determine pEC50 values.

OX2R V114A = biological target: T2, OX2R V114A (Homo sapiens, UniProt O43614, V114A); test: β-arrestin PathHunter assay, OX2R V114A
T2 construct: expressed in transfected cells; host or cells: CHO-K1 stably expressing EA β-arrestin2
Description: as §1

OX2R N324A = biological target: T3, OX2R N324A (Homo sapiens, UniProt O43614, N324A); test: IP accumulation assay, OX2R N324A;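 for % IP accumulation: 100% equals the maximal response of wild-type OX2R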
T3 construct: FLAG; expressed in transfected cells; host or cells: HEK293
T3 sequence (O43614 1-444 N324A): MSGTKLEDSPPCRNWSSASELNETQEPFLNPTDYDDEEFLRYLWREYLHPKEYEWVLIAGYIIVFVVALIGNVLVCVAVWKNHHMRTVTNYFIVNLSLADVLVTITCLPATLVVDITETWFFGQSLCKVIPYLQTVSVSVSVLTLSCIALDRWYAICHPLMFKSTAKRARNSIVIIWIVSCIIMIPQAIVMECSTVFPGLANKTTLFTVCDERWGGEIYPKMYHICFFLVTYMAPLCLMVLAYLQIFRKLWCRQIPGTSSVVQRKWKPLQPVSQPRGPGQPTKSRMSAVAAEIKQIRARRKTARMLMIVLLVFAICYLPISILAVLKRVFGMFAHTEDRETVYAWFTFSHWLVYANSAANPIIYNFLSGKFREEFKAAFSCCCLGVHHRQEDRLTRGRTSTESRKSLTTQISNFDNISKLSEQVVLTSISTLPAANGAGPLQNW
Excerpt: (§2) The IP assay was adapted from a prior precedent. HEK293 cells were maintained in DMEM-high glucose (Millipore Sigma) supplemented with 5% fetal bovine serum (Corning) and penicillin-streptomycin (Millipore Sigma). Receptor constructs used were the full-length wild-type (or mutant) human OX1R and OX2R sequences cloned into pCDNA3. To enhance the Emax in the IP assay, a plasmid encoding full-length human Gαq subunit[66] was co-transfected into HEK293 cells with plasmids encoding orexin receptor constructs using Lipofectamine 3000 (Thermo Fisher). 24 h after transfection, the cells were plated on poly-D-lysine coated (Millipore Sigma) tissue culture-treated 96 well white plates with clear bottoms (Perkin Elmer) at 30,000 cells per well in Inositol-free DMEM (MP Biomedicals) supplemented with 5% fetal bovine serum, 4 mM L-glutamine (Millipore Sigma), penicillin-streptomycin, and about 5 uCi (5 ul) per ml myo-[2-3H] inositol (Perkin Elmer). The following day, the media was replaced with agonists that were diluted in HBSS (Millipore Sigma) containing 10 mM lithium chloride (Millipore Sigma) and incubated at 37 °C for 45 min. Then agonists were removed and cells were lysed on ice for 30 min with 10 mM formic acid (Millipore Sigma). 1.25 mg of poly-lysine coated YSI SPA beads (Perkin Elmer) was added to each well. The plates were mixed on an orbital shaker for 30 min. The plates were read on a MicroBeta scintillation counter (Perkin Elmer) the following day. IP accumulation assays on different constructs were performed in n ≥ 3 independent experiments (each done in duplicate), where n is shown in Supplementary Table 2.

human OX2R wild type = biological target: T4, human OX2R wild type (Homo sapiens, UniProt O43614); test: Inositol phosphate accumulation assay for Gq signaling, OX2R WT; set-up: FLAG; expressed in transfected cells; host or cells: HEK293; conditions: for Emax: normalized to OX2R WT Emax with the same ligand;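 for % IP accumulation: 100% equals the maximal response of wild-type OX2R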
T4 sequence (O43614 1-444): T3 sequence (O43614 1-444 N324A) with A324N
Excerpt: as §2

[1] = OXB conc (log, M) -10.29, listed as OXB

T1 sequence (O43614 whole entry Y354A): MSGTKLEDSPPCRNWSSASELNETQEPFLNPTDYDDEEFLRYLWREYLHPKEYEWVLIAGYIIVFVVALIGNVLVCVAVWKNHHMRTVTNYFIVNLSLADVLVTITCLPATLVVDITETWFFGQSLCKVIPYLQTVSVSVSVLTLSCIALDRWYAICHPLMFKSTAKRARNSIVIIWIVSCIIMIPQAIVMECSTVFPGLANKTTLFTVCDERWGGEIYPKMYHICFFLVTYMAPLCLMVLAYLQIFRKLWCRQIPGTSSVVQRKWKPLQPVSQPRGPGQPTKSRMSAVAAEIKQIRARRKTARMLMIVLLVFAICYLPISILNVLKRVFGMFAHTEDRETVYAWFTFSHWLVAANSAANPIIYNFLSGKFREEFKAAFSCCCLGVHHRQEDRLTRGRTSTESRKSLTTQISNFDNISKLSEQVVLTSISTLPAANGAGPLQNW
T1 sequence (P32121 whole entry partner): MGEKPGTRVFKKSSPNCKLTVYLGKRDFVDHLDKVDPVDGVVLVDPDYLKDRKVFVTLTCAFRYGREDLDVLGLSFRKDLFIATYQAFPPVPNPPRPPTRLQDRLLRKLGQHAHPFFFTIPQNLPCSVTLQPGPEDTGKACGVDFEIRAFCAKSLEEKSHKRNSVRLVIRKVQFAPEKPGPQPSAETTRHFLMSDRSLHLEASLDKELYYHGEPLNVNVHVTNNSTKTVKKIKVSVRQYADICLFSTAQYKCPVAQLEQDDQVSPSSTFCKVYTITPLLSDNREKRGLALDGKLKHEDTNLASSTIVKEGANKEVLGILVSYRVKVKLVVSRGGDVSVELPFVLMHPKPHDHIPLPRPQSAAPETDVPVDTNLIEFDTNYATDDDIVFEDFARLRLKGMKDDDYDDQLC
T2 sequence (O43614 whole entry V114A): as the sequence (O43614 whole entry Y354A) above, with V114A, A354Y counted along it

Compound: COC(=O)N1CCC[C@H](NS(C)(=O)=O)[C@@H]1CO[C@H]1CC[C@@H](c2ccccc2)CC1 [TAK-925, methyl (2R,3S)−3-[(methylsulfonyl)amino]−2-{[(cis−4-phenylcyclohexyl)oxy]methyl}piperidine-1-carboxylate]
- EC50 (OX2R Y354A; β-arrestin recruitment): 2400 nM
- EC50 (OX2R V114A; β-arrestin recruitment): 2200 nM
- EC50 (OX2R N324A; IP accumulation): 18 nM
- % IP accumulation (OX2R N324A; TAK-925 conc (log, M) -4.52): 38.90% and 50.17% and 61.68%
- % IP accumulation (OX2R N324A; TAK-925 conc (log, M) -5.00): 44.83% and 48.29% and 62.09%
- % IP accumulation (OX2R N324A; TAK-925 conc (log, M) -5.48): 54.68% and 49.83% and 60.54%
- % IP accumulation (OX2R N324A; TAK-925 conc (log, M) -5.95): 62.62% and 51.37% and 66.38%
- % IP accumulation (OX2R N324A; TAK-925 conc (log, M) -6.43): 60.89% and 49.04% and 58.43%
- % IP accumulation (OX2R N324A; TAK-925 conc (log, M) -6.91): 55.51% and 43.02% and 53.52%
- % IP accumulation (OX2R N324A; TAK-925 conc (log, M) -7.39): 29.79% and 34.77% and 41.19%
- % IP accumulation (OX2R N324A; TAK-925 conc (log, M) -7.86): 20.98% and 26.21% and 25.22%
- % IP accumulation (OX2R N324A; TAK-925 conc (log, M) -8.34): 10.23% and 11.60% and 16.93%
- % IP accumulation (OX2R N324A; TAK-925 conc (log, M) -8.82): 0.00% and 5.30%
- % IP accumulation (OX2R N324A; TAK-925 conc (log, M) -9.29): 0.24% and 0.00% and 4.28%
- Emax (OX2R N324A; relative to OX2R WT/TAK-925): 55
- EC50 (human OX2R wild type; IP accumulation): 7.5 nM
- % IP accumulation (human OX2R wild type; TAK-925 conc (log, M) -10.25): 0.00%
- Emax (human OX2R wild type): 100

Compound: orexin B
- beta-arrestin recruitment fold change (OX2R Y354A; OxB concentration -6.00 (log, M)): 9.833 fold and 7.839 fold and 7.764 fold and 5.538 fold
- beta-arrestin recruitment fold change (OX2R Y354A; OxB concentration -6.52 (log, M)): 8.222 fold and 8.331 fold and 7.995 fold and 7.023 fold
- beta-arrestin recruitment fold change (OX2R Y354A; OxB concentration -7.00 (log, M)): 7.061 fold and 6.164 fold and 4.831 fold and 5.998 fold
- beta-arrestin recruitment fold change (OX2R Y354A; OxB concentration -7.52 (log, M)): 3.021 fold and 4.546 fold and 4.264 fold and 4.947 fold
- beta-arrestin recruitment fold change (OX2R Y354A; OxB concentration -8.00 (log, M)): 1.570 fold and 2.249 fold and 1.723 fold and 2.390 fold
- beta-arrestin recruitment fold change (OX2R Y354A; OxB concentration -8.52 (log, M)): 0.925 fold and 1.624 fold and 1.133 fold and 1.227 fold
- beta-arrestin recruitment fold change (OX2R Y354A; OxB concentration -9.00 (log, M)): 0.997 fold and 0.922 fold and 1.331 fold and 1.082 fold
- beta-arrestin recruitment fold change (OX2R Y354A; OxB concentration -10.00 (log, M)): 1.135 fold and 1.096 fold and 1.298 fold and 1.060 fold
- beta-arrestin recruitment fold change (OX2R V114A; V114A, OxB concentration -8.00 (log, M), listed as OxB): 1.594 fold and 2.704 fold and 1.365 fold and 1.888 fold
- activation of the mutant receptor (OX2R N324A; Gq signaling, IP accumulation): fails to activate
- % IP accumulation (OX2R N324A; OXB conc (log, M) -6.95, listed as OXB): 32.75% and 37.01% and 40.09%
- % IP accumulation (OX2R N324A; OXB conc (log, M) -7.43, listed as OXB): 25.51% and 22.88% and 29.36%
- % IP accumulation (OX2R N324A; OXB conc (log, M) -7.91, listed as OXB): 19.13% and 21.90% and 18.40%
- % IP accumulation (OX2R N324A; OXB conc (log, M) -8.39, listed as OXB): 9.56% and 13.73% and 13.07%
- % IP accumulation (OX2R N324A; OXB conc (log, M) -8.86, listed as OXB): 3.38% and 9.31% and 7.17%
- % IP accumulation (OX2R N324A; OXB conc (log, M) -9.34, listed as OXB): 7.35% and 10.16% and 5.28%
- % IP accumulation (OX2R N324A; OXB conc (log, M) -9.82, listed as OXB): 3.06% and 4.95% and 0.00%
- % IP accumulation (OX2R N324A; [1]): 0.00% and 2.10%
- % IP accumulation (human OX2R wild type; OXB conc (log, M) -6.47712, listed as OXB): 93.64% and 92.82% and 91.17% and 95.11% and 103.46%
- % IP accumulation (human OX2R wild type; [1]): 0.00% and 0.37% and 3.64%
- Emax (human OX2R wild type): 100

— article PMC9133036 (Nature Communications, 2022)
